Assay results: US20230357242A1, “COMPOUND AS AKT KINASE INHIBITOR” (CHIA TAI TIANQING PHARMACEUTICAL GROUP CO., LTD., priority 2020, published 2023)
Like-named read-outs stand apart in the source and are kept apart here.

Test: Pharmacokinetic evaluation in rats
Format: in vivo
Parameters: Cl: unit not given here
Conditions: SD rats; for bioavailability / AUC(0-inf) / AUC(0-t) / Cmax / Tmax / MRT last / Vd: rat, plasma; for bioavailability: oral, IG 10 mg/kg vs IV 1 mg/kg, read-out: Absolute bioavailability F %; for MRT last: read-out: MRT(0-t)
Description: SD rats, weight 180-220 g, after adaption for 7 days, were randomly divided into 4 groups of 3 […], each group was intragastrically (IG) administered with compound 28 or compound 30 at a dose of 10 mg/kg, or intravenously (IV) administered with compound 28 or compound 30 at a dose of 1 mg/kg. The animals to be tested (SD rats) were fasted for 12 h before administration and food was provided 4 h after administration, and water was freely drunk before and after the experiment and during the experiment.
After intragastric administration, about 0.1 mL of blood was taken from eye sockets at 15 min, 30 min, 1 h, 2 h, 3 h, 4 h, 6 h, 8 h, 10 h, and 24 h; after intravenous injection, about 0.1 mL of blood was taken from eye sockets at 5 min, 10 min, 30 min, 1 h, 2 h, 4 h, 6 h, 8 h, 10 h, and 24 h; 3 rats were collected at each time point, whole blood was collected, placed in centrifuge tubes containing EDTA-K2, and stored at 4° C. within 1 h, and the plasma was separated off by centrifugation at 4° C. and 4000 rpm for 10 min. All the plasma samples were collected and immediately stored at −20° C. for testing. 30 μL of the plasma sample to be tested and a standard curve sample were pipetted and added with 300 μL of acetonitrile solution containing an internal standard (20 ng/mL diazepam), shaken and mixed well for 5 min, and centrifuged at 13,000 rpm for 10 min. 80 μL of supernatant was taken and diluted with 80 μL of ultrapure water. After being mixed well, 2 μL of the resulting sample was taken for liquid chromatography-mass determination, and a chromatogram was recorded.
Oral and intravenous exposure of the compound of the present application was evaluated by in vivo pharmacokinetic experiment in rats.

t1/2z (IG 10 mg/kg)	Cl (IV 1 mg/kg)	t1/2z (IV 1 mg/kg)	bioavailability	AUC(0-inf) (po, IG 10 mg/kg)	AUC(0-t) (po, IG 10 mg/kg)	Cmax (po, IG 10 mg/kg)	Tmax (po, IG 10 mg/kg)	MRT last (po, IG 10 mg/kg)	AUC(0-inf) (IV 1 mg/kg)	AUC(0-t) (IV 1 mg/kg)	Vd (IV 1 mg/kg)	MRT last (IV 1 mg/kg)	SMILES
3.93 ± 1.46 h	5.75 ± 0.146	5.9 ± 2.11 h	25%	372 ± 197 ng·h/mL	362 ± 195 ng·h/mL	32.6 ± 12.4 ng/mL	4.67 ± 1.15 h	7.38 ± 0.43 h	174 ± 4.37 ng·h/mL	145 ± 11.1 ng·h/mL	48.8 ± 16.8 L/kg	2.12 ± 0.099 h	CC(=O)N1CC2(C1)CN(c1cccc(-c3ccc4nc(-c5cccnc5N)n(-c5ccc(C6(N)CCC6)cc5)c4n3)c1F)C2 [Compound 28]
5.43 ± 1.82 h	7.23 ± 0.496	7.73 ± 0.440 h	35.5%	383 ± 106 ng·h/mL	358 ± 109 ng·h/mL	31.2 ± 8.8 ng/mL	4.67 ± 1.15 h	8.15 ± 0.73 h	139 ± 9.21 ng·h/mL	127 ± 9.69 ng·h/mL	80.8 ± 8.9 L/kg	5.57 ± 0.053 h	Nc1ncccc1-c1nc2ccc(-c3cccc(N4CCC(N5CCCC5=O)CC4)c3F)nc2n1-c1ccc(C2(N)CCC2)cc1 [Compound 30]
